Measurements reported in patent US11059780B2, “Substituted pyrrolidine compound and use thereof” (Takeda Pharmaceutical Company Limited, priority 2017, dated 2021).

Target: T1, human orexin type 2 receptor (hOX2R) (Homo sapiens, UniProt O43614)
T1 construct: expressed in transfected cells
T1 sequence (O43614 1-444): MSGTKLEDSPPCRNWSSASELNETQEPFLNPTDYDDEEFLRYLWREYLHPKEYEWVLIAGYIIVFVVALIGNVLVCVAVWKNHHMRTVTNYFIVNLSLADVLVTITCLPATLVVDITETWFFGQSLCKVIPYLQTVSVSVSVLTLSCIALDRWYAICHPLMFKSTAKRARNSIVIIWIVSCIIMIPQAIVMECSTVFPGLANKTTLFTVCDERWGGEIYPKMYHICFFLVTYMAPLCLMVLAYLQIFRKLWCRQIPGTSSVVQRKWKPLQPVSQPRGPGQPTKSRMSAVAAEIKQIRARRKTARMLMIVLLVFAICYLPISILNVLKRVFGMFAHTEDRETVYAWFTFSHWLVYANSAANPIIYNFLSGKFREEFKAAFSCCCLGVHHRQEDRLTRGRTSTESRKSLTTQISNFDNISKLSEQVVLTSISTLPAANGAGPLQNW
Assay: Measurement of orexin type 2 receptor agonist activity (Fluo-4 calcium fluorescence, CHO cells forcibly expressing human OX2 receptor)
Assay type: cell-based
Conditions: test compound 3 μM, DMSO = 0%, orexin A (human) 10 nM = 100%
Description: Experimental Example 1: Obtainment of Cell Stably Expressing Human Orexin Type 2 Receptor (hOX2R)
To obtain a cell clone stably expressing human orexin type 2 receptor, human orexin type 2 receptor cDNA was inserted into pcDNA3.1(+) plasmid vector (Invitrogen), and a plasmid DNA for expression of human orexin type 2 receptor (pcDNA3.1(+)/hOX2R) was cloned. The plasmid DNA was introduced into CHO-dhfr cell by an electroporation method, and human orexin type 2 receptor expressing clone cells were obtained by limiting dilution method by using G418 drug resistance as a selection marker.
Experimental Example 2: Measurement of Orexin Type 2 Receptor Agonist Activity
CHO cells forcibly expressing human OX2 receptor were seeded in each well of 384 well black transparent bottom plate (BD Falcon) at 7,500 cells/well, and cultured for one day in a 5% CO2 incubator at 37° C. After removal of the medium in the cell plate, assay buffer A containing a calcium indicator (HBSS (Life Technologies), 20 mM HEPES (Life Technologies), 0.1% BSA (Wako Pure Chemical Industries, Ltd.), 2.5 μg/mL Fluo-4 AM (DOJINDO Chemical), 0.08% Pluronic F127 (DOJINDO Chemical), 1.25 mM probenecid (DOJINDO Chemical)) was added at 30 μL/well. The plate was stood for 30 min in a 5% CO2 incubator at 37° C., and further stood at room temperature for 30 min. A test compound prepared by diluting with assay buffer B (HBSS, 20 mM HEPES, 0.1% BSA) was added at 10 μL/well, and the fluorescence value was measured by FDSSpCELL (Hamamatsu Photonics K.K.) every one sec for 1 min, and thereafter every two sec for 1 min 40 sec. The activity (%) of the test compound was calculated assuming that variation in the fluorescence value when DMSO was added instead of the test compound was 0% […], and variation in the fluorescence value when orexin A (human) (PEPTIDE INSTITUTE, INC.) was added at the final concentration of 10 nM was 100% […]. The activity of each compound at the concentration of 3 μM was shown below.

Q: With `CO[C@@H]1CN(C(=O)c2cc(C)ccc2C)C[C@H]1Oc1cccc(NS(=O)(=O)N(C)C2CCOCC2)c1` (relative stereo) [Example 47, trans-N′-(3-((1-(2,5-dimethylbenzoyl)-4-methoxypyrrolidin-3-yl)oxy)phenyl)-N-methyl-N-(tetrahydro-2H-pyran-4-yl)sulfuric diamide] as the molecule, how does the “OX2R agonist activity (3 μM, %)” value read?
A: Its value is 106%.

Q: `CO[C@@H]1CN(C(=O)c2cc(C)ccc2C)C[C@H]1Oc1cccc(CS(=O)(=O)N2CCCC2c2cnccn2)c1` (relative stereo) [Example 39, trans-(2,5-dimethylphenyl)(3-methoxy-4-(3-(((2-(pyrazin-2-yl)pyrrolidin-1-yl)sulfonyl)methyl)phenoxy)pyrrolidin-1-yl)methanone] was tested. Which “OX2R agonist activity (3 μM, %)” value did it give?
A: Its value is 76%.

Q: How did the “OX2R agonist activity (3 μM, %)” value turn out when `CO[C@@H]1CN(C(=O)c2cc(C)ccc2C)C[C@H]1Oc1cccc(NS(=O)(=O)N2CCCC2c2ccncc2)c1` (relative stereo) [Example 52, trans-N-(3-((1-(2,5-dimethylbenzoyl)-4-methoxypyrrolidin-3-yl)oxy)phenyl)-2-(pyridin-4-yl)pyrrolidine-1-sulfonamide] was run?
A: Its value is 83%.

Q: Which “OX2R agonist activity (3 μM, %)” value does the source give for `CO[C@@H]1CN(C(=O)c2cc(C)ccc2C)C[C@H]1Oc1cccc(NS(=O)(=O)N2CCCC2)c1` (relative stereo) [Example 22, trans-N-(3-((1-(2,5-dimethylbenzoyl)-4-methoxypyrrolidin-3-yl)oxy)phenyl)pyrrolidine-1-sulfonamide] here?
A: Its value is 65%.

Q: `CO[C@@H]1CN(C(=O)c2cc(C)ccc2C)C[C@H]1Oc1cccc(NS(=O)(=O)N2CCCC2C)c1` (relative stereo) [Example 23, trans-N-(3-((1-(2,5-dimethylbenzoyl)-4-methoxypyrrolidin-3-yl)oxy)phenyl)-2-methylpyrrolidine-1-sulfonamide] was tested. Which “OX2R agonist activity (3 μM, %)” value did it give?
A: The value was 60%.

Q: How did the “OX2R agonist activity (3 μM, %)” value turn out when `COC1CN(C(=O)c2cc(C)ccc2C)CC1Oc1cccc(NS(=O)(=O)N2C[C@@H]3C[C@H]3C2)c1` (relative stereo) [Example 73, trans-N-(3-((1-(2,5-dimethylbenzoyl)-4-methoxypyrrolidin-3-yl)oxy)phenyl)-3-azabicyclo[3.1.0]hexane-3-sulfonamide] was run?
A: Its value is 91%.

Q: For `CO[C@@H]1CN(C(=O)c2cc(C)ccc2C)C[C@H]1Oc1cccc(CS(=O)(=O)N2CCCC2c2ccc(C)nc2)c1` (relative stereo) [Example 112, trans-(2,5-dimethylphenyl)(3-methoxy-4-(3-(((2-(6-methylpyridin-3-yl)pyrrolidin-1-yl)sulfonyl)methyl)phenoxy)pyrrolidin-1-yl)methanone], which “OX2R agonist activity (3 μM, %)” value is on record?
A: Its value is 77%.

Q: For `CO[C@@H]1CN(C(=O)c2cc(C)ccc2C)C[C@H]1Oc1cccc(CS(=O)(=O)N2CCC[C@H]2c2ccccn2)c1` [Example 57, (2,5-dimethylphenyl)((3R,4R)-3-methoxy-4-(3-((((2S)-2-(pyridin-2-yl)pyrrolidin-1-yl)sulfonyl)methyl)phenoxy)pyrrolidin-1-yl)methanone], which “OX2R agonist activity (3 μM, %)” value is on record?
A: The value was 55%.

Q: How did the “OX2R agonist activity (3 μM, %)” value turn out when `CO[C@@H]1CN(C(=O)c2cc(C)ccc2C)C[C@H]1Oc1cccc(NS(=O)(=O)N2CCCC2Cc2cccnc2)c1` (relative stereo) [Example 67, trans-N-(3-((1-(2,5-dimethylbenzoyl)-4-methoxypyrrolidin-3-yl)oxy)phenyl)-2-(pyridin-3-ylmethyl)pyrrolidine-1-sulfonamide] was run?
A: Its value is 82%.

Q: Which “OX2R agonist activity (3 μM, %)” value does the source give for `COC1CN(C(=O)c2cc(C)ccc2C)CC1Oc1cccc(NS(=O)(=O)N2CC[C@@H]3C[C@H]32)c1` (relative stereo) [Example 72, trans-N-(3-((1-(2,5-dimethylbenzoyl)-4-methoxypyrrolidin-3-yl)oxy)phenyl)-2-azabicyclo[3.1.0]hexane-2-sulfonamide] here?
A: Its value is 74%.

Q: `CO[C@@H]1CN(C(=O)c2cc(C)ccc2C)C[C@H]1Oc1cccc(CS(=O)(=O)N(C)c2ccncc2)c1` (relative stereo) [Example 7, trans-1-(3-((1-(2,5-dimethylbenzoyl)-4-methoxypyrrolidin-3-yl)oxy)phenyl)-N-methyl-N-(pyridin-4-yl)methanesulfonamide] was tested. Which “OX2R agonist activity (3 μM, %)” value did it give?
A: Its value is 32%.

Q: With `CO[C@@H]1CN(C(=O)c2cc(C)ccc2C)C[C@H]1Oc1cccc(CS(=O)(=O)N2CCC23COC3)c1` (relative stereo) [Example 34, trans-(2,5-dimethylphenyl)(3-methoxy-4-(3-((6-oxa-1-azaspiro[3.3]hept-1-ylsulfonyl)methyl)phenoxy)pyrrolidin-1-yl)methanone] as the molecule, how does the “OX2R agonist activity (3 μM, %)” value read?
A: Its value is 87%.

Q: Which “OX2R agonist activity (3 μM, %)” value does the source give for `CO[C@@H]1CN(C(=O)c2cc(C)ccc2C)C[C@H]1Oc1cccc(NS(=O)(=O)N(C)C2COC2)c1` (relative stereo) [Example 45, trans-N′-(3-((1-(2,5-dimethylbenzoyl)-4-methoxypyrrolidin-3-yl)oxy)phenyl)-N-methyl-N-oxetan-3-ylsulfuric diamide] here?
A: The value was 82%.

Q: `CO[C@@H]1CN(C(=O)c2cc(C)ccc2C)C[C@H]1Oc1cccc(NS(=O)(=O)N2CCC23COC3)c1` (relative stereo) [Example 63, trans-N-(3-((1-(2,5-dimethylbenzoyl)-4-methoxypyrrolidin-3-yl)oxy)phenyl)-6-oxa-1-azaspiro[3.3]heptane-1-sulfonamide] was tested. Which “OX2R agonist activity (3 μM, %)” value did it give?
A: Its value is 77%.

Q: With `COc1cccc(C)c1C(=O)N1CC(OC)C(Oc2cccc(CS(=O)(=O)N3CCCC3c3ccc(C)nc3C)c2)C1` (stereo not drawn) [Example 124, trans-3-(3-(((2-(2,6-dimethylpyridin-3-yl)pyrrolidin-1-yl)sulfonyl)methyl)phenoxy)-4-methoxypyrrolidin-1-yl)(2-methoxy-6-methylphenyl)methanone] as the molecule, how does the “OX2R agonist activity (3 μM, %)” value read?
A: The value was 99%.

Q: Which “OX2R agonist activity (3 μM, %)” value does the source give for `CO[C@@H]1CN(C(=O)c2cc(C)ccc2C)C[C@H]1Oc1cccc(NS(=O)(=O)N2CCOC(C)C2)c1` (relative stereo) [Example 54, trans-N-(3-((1-(2,5-dimethylbenzoyl)-4-methoxypyrrolidin-3-yl)oxy)phenyl)-2-methylmorpholine-4-sulfonamide] here?
A: Its value is 85%.

Q: Which “OX2R agonist activity (3 μM, %)” value does the source give for `COC1CN(C(=O)c2cc(C)ccc2C)CC1Oc1cccc(CS(=O)(=O)N(C)[C@@H]2CCOC[C@H]2F)c1` (relative stereo) [Example 142, trans-1-(3-((1-(2,5-dimethylbenzoyl)-4-methoxypyrrolidin-3-yl)oxy)phenyl)-N-(3-fluorotetrahydro-2H-pyran-4-yl)-N-methylmethanesulfonamide] here?
A: Its value is 115%.

Q: `CCc1cccc(C)c1C(=O)N1C[C@@H](OC)[C@H](Oc2cccc(CS(=O)(=O)N(C)C3CCOC(C)(C)C3)c2)C1` (relative stereo) [Example 140, trans-N-(2,2-dimethyltetrahydro-2H-pyran-4-yl)-1-(3-((1-(2-ethyl-6-methylbenzoyl)-4-methoxypyrrolidin-3-yl)oxy)phenyl)-N-methylmethanesulfonamide] was tested. Which “OX2R agonist activity (3 μM, %)” value did it give?
A: Its value is 109%.

Q: `COC1CN(C(=O)c2cc(C)ccc2C)CC1Oc1cccc(NS(=O)(=O)N2C[C@@H]3CC[C@@H](C2)O3)c1` (relative stereo) [Example 80, trans-N-(3-((1-(2,5-dimethylbenzoyl)-4-methoxypyrrolidin-3-yl)oxy)phenyl)-8-oxa-3-azabicyclo[3.2.1]octane-3-sulfonamide] was tested. Which “OX2R agonist activity (3 μM, %)” value did it give?
A: The value was 94%.

Q: With `CO[C@@H]1CN(C(=O)c2cc(C)ccc2C)C[C@H]1Oc1cccc(NS(=O)(=O)N2CCC2)c1` (relative stereo) [Example 48, trans-N-(3-((1-(2,5-dimethylbenzoyl)-4-methoxypyrrolidin-3-yl)oxy)phenyl)azetidine-1-sulfonamide] as the molecule, how does the “OX2R agonist activity (3 μM, %)” value read?
A: Its value is 62%.

Q: `CO[C@@H]1CN(C(=O)c2cc(C)ccc2C)C[C@H]1Oc1cccc(NS(=O)(=O)N2CCC3(COC3)C2)c1` (relative stereo) [Example 70, trans-N-(3-((1-(2,5-dimethylbenzoyl)-4-methoxypyrrolidin-3-yl)oxy)phenyl)-2-oxa-6-azaspiro[3.4]octane-6-sulfonamide] was tested. Which “OX2R agonist activity (3 μM, %)” value did it give?
A: Its value is 90%.
